We go through 13 molecules from article PMC10620989, “Going beyond Binary: Rapid Identification of Protein–Protein Interaction Modulators Using a Multifragment Kinetic Target-Guided Synthesis Approach” (Journal of Medicinal Chemistry, 2023).

Like-named read-outs stand apart in the source and are kept apart here. Where only a bound is given, the exact number is not on record here.

The term IC50 denotes the concentration needed to halve the response being measured. In general, inhibition refers to the percentage by which the read-out fell short of the control.

One test deals with Bcl-XL (Homo sapiens, UniProt Q07817). As to the kind of experiment: Multifragment KTGS incubation with Bcl-XL (9 TA x 9 SZ in one well), LC-MS/MS. The note with it: 81 combinations in one well, 5 μM Bcl-XL, phosphate buffer pH 7.4, 8 h.
Test [1] addresses T1, Mcl-1 (Mus musculus, UniProt P97287). As to the kind of experiment: Multifragment KTGS screen against Mcl-1 (5 TA x 38 SZ per well), LC-MS/MS. The note with it: multifragment KTGS, 190 combinations per well, 10 μM Mcl-1, 20 μM each fragment, pH 7.4, 37 °C, 10 h; peak area with protein / without protein.
The target of test [2] is GST-tagged mouse Mcl-1-(152–309) (Mus musculus, UniProt P97287). Kind of test: Fluorescence polarization competitive binding assay, GST-Mcl-1 / FITC-Bim-BH3. The arrangement: selectivity index: reference not given here. To be noted: for inhibition at 50 µM: compound at 50 µM. On the technique in general: Fluorescence polarisation rises when a labelled molecule tumbles more slowly, as on binding a larger partner.

For test [3], the target named is T1, Mcl-1. As to the kind of experiment: Binary KTGS incubation (1 TA x 1 SZ) with Mcl-1, LC-MS/MS. The note with it: binary incubation mixtures with and without Mcl-1.
In test [4] the target is T2, GST-Bcl-XL (Homo sapiens, UniProt Q07817). Kind of test: Fluorescence polarization assay, GST-Bcl-XL / fluorescein-labeled Bak BH3 peptide. The format is binding. To be noted: FP, GST-Bcl-XL and fluorescein-labeled Bak BH3 peptide; ND = not detected.
Test [5] deals with T2, GST-Bcl-XL. More on the design: method as in PMID 21892513. The note with it: 50 μM; ref 15b; cited from earlier work.
The mark [6] stands for this setting: FP, GST-Mcl-1 and fluorescein-labeled Bim BH3 peptide, read-out: IC50 on Mcl-1.

GST-tagged mouse Mcl-1-(152–309), sequence (P97287 152-309): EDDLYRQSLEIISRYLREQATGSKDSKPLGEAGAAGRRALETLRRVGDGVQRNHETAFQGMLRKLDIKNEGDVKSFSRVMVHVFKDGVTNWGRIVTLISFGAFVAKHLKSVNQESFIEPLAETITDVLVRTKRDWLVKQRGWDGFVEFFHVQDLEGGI
T2 sequence (Q07817 whole entry): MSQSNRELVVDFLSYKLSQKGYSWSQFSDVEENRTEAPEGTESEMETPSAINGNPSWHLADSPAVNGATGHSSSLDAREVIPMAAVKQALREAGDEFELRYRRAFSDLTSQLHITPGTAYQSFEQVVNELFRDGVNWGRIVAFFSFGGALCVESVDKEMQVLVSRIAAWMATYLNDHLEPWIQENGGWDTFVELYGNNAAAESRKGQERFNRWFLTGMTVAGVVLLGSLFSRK
Bcl-XL, sequence (Q07817 whole entry, species assumed, the tested form may be a part): as the sequence (Q07817 whole entry) above
T1 sequence (P97287 whole entry, the tested form may be a part): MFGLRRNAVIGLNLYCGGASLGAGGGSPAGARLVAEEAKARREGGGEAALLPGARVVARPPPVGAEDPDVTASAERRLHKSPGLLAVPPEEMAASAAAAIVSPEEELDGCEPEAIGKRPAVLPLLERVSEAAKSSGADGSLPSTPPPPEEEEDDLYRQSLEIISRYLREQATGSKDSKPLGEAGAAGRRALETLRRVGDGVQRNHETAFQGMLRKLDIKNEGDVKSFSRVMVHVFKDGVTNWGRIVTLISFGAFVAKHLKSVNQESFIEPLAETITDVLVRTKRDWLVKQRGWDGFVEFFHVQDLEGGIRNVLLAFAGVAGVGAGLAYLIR

Consider `CC1(C)CCN(c2ccc(C(=O)NS(=O)(=O)c3ccc(NCCSc4ccccc4)c([N+](=O)[O-])c3)cc2)CC1` [SZ4TA2, reference compound], for which the Amplification coefficient at Bcl-XL turned out to be 15.0.
On to `CC1(C)CCN(c2ccc(C(=O)NS(=O)(=O)c3ccc4ccc(S(=O)(=O)NCCSc5ccccc5)cc4c3)cc2)CC1` [SZ7TA2], for which the Amplification coefficient on Bcl-XL came out at 15.2.
Take `[N-]=[N+]=NS(=O)(=O)c1ccc(CN(CCSc2ccccc2)Cc2ccc(S(=O)(=O)NC(=O)c3ccccc3)cc2)cc1` [SZ9TA1, O=C(NS(C1=CC=C(CN(CC2=CC=C(S(=O)(N=[N+]=[N-])=O)C=C2)CCSC3=CC=CC=C3)C=C1)(=O)=O)C4=CC=CC=C4]: the “Amplification coefficient 5TA x 38SZ” value at Mcl-1 [1] is 14. The 50% inhibitory concentration (IC50) in test [2] (setting [6]) came out at 19.8 µM; at GST-Bcl-XL [4], 28.8 µM. In test [2] (FP), this molecule returned an inhibition at 50 µM of 97.3%. Further, the “Amplification coefficient 1TA x 1SZ” value on Mcl-1 [3] was found to be 4. In addition, the Amplification coefficient at Bcl-XL is 7.3.
Consider `COc1cc(OC)cc(C(=O)NS(=O)(=O)c2ccc(CN(CCSc3ccccc3)Cc3ccc(S(=O)(=O)N=[N+]=[N-])cc3)cc2)c1` [SZ9TA5, O=C(NS(C1=CC=C(CN(CC2=CC=C(S(=O)(N=[N+]=[N-])=O)C=C2)CCSC3=CC=CC=C3)C=C1)(=O)=O)C4=CC(OC)=CC(OC)=C4], for which the “Amplification coefficient 5TA x 38SZ” value at Mcl-1 [1] is on record as 8. For the same molecule, in test [2] (setting [6]), the IC50 is 8.1 µM. Moreover, in test [2] (FP), the inhibition at 50 µM was determined as 99%. The “Amplification coefficient 1TA x 1SZ” value on Mcl-1 [3] turned out to be 4.5. Moreover, the Amplification coefficient at Bcl-XL worked out at 7.6.
As to `[N-]=[N+]=NS(=O)(=O)c1ccc(CN(CCSc2ccccc2)Cc2ccc(S(=O)(=O)NC(=O)c3cccc4ccccc34)cc2)cc1` [SZ9TA7, O=C(NS(C1=CC=C(CN(CC2=CC=C(S(=O)(N=[N+]=[N-])=O)C=C2)CCSC3=CC=CC=C3)C=C1)(=O)=O)C4=C(C=CC=C5)C5=CC=C4], the “Amplification coefficient 5TA x 38SZ” value on Mcl-1 [1] is given as 23. Further, the values for the IC50 (in test [2] (setting [6]); on GST-Bcl-XL [4]) were 8.2 µM and 66.3 µM, respectively. Besides, 50 µM produced 94.1% inhibition in test [2] (FP). In addition, the “Amplification coefficient 1TA x 1SZ” value on Mcl-1 [3] is on record as 6. For the same molecule, on Bcl-XL, the Amplification coefficient is reported as 7.1. In addition, the “inhibition of the Bcl-XL/Bak BH3 interaction” value on GST-Bcl-XL [5] is 45%.
With `O=C(NS(=O)(=O)c1ccc(CN(CCSc2ccccc2)Cc2c(F)cccc2Cl)cc1)c1ccc(OC(F)(F)F)cc1` [SZ15TA8, O=C(NS(C1=CC=C(CN(CCSC2=CC=CC=C2)CC3=C(F)C=CC=C3Cl)C=C1)(=O)=O)C4=CC=C(OC(F)(F)F)C=C4], at Mcl-1 [1], the “Amplification coefficient 5TA x 38SZ” value was 7. Also, the selectivity index in test [2] is 6.2. Moreover, the inhibition at 50 µM in test [2] (FP) turned out to be 96.5%. The IC50 in test [2] (IC50 on Mcl-1) stood at 7.6 µM; on GST-Bcl-XL [4], 47 µM. For the same molecule, at Mcl-1 [3], the “Amplification coefficient 1TA x 1SZ” value is given as 6.
Consider `O=C(NS(=O)(=O)c1ccc(CN(CCSc2ccccc2)Cc2c(F)cccc2Cl)cc1)c1ccc(CCc2ccccn2)cc1` [SZ15TA17, O=C(NS(C1=CC=C(CN(CCSC2=CC=CC=C2)CC3=C(F)C=CC=C3Cl)C=C1)(=O)=O)C4=CC=C(CCC5=NC=CC=C5)C=C4], for which, on Mcl-1 [1], the “Amplification coefficient 5TA x 38SZ” value was determined as 7. In test [2] (FP), this molecule gave an inhibition at 50 µM of 89.5%. Besides, the 50% inhibitory concentration (IC50) in test [2] (IC50 on Mcl-1) came out at 20.2 µM; at GST-Bcl-XL [4], 55.9 µM. The “Amplification coefficient 1TA x 1SZ” value at Mcl-1 [3] came to 7.
For `O=C(NS(=O)(=O)c1ccc(CN(CCSc2ccccc2)Cc2c(F)cccc2Cl)cc1)c1ccc(-c2ccccn2)cc1` [SZ15TA25, O=C(NS(C1=CC=C(CN(CCSC2=CC=CC=C2)CC3=C(F)C=CC=C3Cl)C=C1)(=O)=O)C4=CC=C(C5=NC=CC=C5)C=C4], the “Amplification coefficient 5TA x 38SZ” value on Mcl-1 [1] is reported as 15. At 50 µM the inhibition in test [2] (FP) was 89%. Further, the IC50 in test [2] (IC50 on Mcl-1) turned out to be 15.3 µM; at GST-Bcl-XL [4], 54.9 µM. Also, the “Amplification coefficient 1TA x 1SZ” value on Mcl-1 [3] came out at 4.5.
Take `COc1cccc(CN(CCSc2ccccc2)Cc2ccc(S(=O)(=O)NC(=O)c3sc(-c4ccccc4)nc3C)cc2)c1` [SZ17TA3, O=C(NS(C1=CC=C(CN(CC2=CC(OC)=CC=C2)CCSC3=CC=CC=C3)C=C1)(=O)=O)C4=C(C)N=C(C5=CC=CC=C5)S4]: the “Amplification coefficient 5TA x 38SZ” value on Mcl-1 [1] turned out to be 25. In addition, the IC50 in test [2] (setting [6]) was 8.6 µM; against GST-Bcl-XL [4], 50 µM. In test [2] (FP), the inhibition at 50 µM is above 99%. Moreover, at Mcl-1 [3], the “Amplification coefficient 1TA x 1SZ” value turned out to be 12.
Consider `COc1cccc(CN(CCSc2ccccc2)Cc2ccc(S(=O)(=O)NC(=O)c3cccc4ccccc34)cc2)c1` [SZ17TA7, O=C(NS(C1=CC=C(CN(CC2=CC(OC)=CC=C2)CCSC3=CC=CC=C3)C=C1)(=O)=O)C4=C(C=CC=C5)C5=CC=C4], for which, at Mcl-1 [1], the “Amplification coefficient 5TA x 38SZ” value is reported as 10. For the same molecule, the IC50 in test [2] (setting [6]) came to 20.1 µM; at GST-Bcl-XL [4], 72 µM. For the same molecule, at 50 µM the inhibition in test [2] (FP) was 87.3%. Besides, at Mcl-1 [3], the “Amplification coefficient 1TA x 1SZ” value is recorded as 12.
Consider `O=C(Cn1c2ccccc2c2ccccc21)NS(=O)(=O)c1ccc(CN(CCSc2ccccc2)Cc2ccc3c(c2)OCO3)cc1` [SZ31TA15, O=C(NS(C1=CC=C(CN(CC2=CC(OCO3)=C3C=C2)CCSC4=CC=CC=C4)C=C1)(=O)=O)CN5C(C=CC=C6)=C6C7=C5C=CC=C7], for which the “Amplification coefficient 5TA x 38SZ” value at Mcl-1 [1] is on record as 72. The 50% inhibitory concentration (IC50) in test [2] (setting [6]) worked out at 14 µM. Also, 50 µM produced 80.7% inhibition in test [2] (FP). For the same molecule, at Mcl-1 [3], the “Amplification coefficient 1TA x 1SZ” value came out at 6. In addition, the “IC50 on Bcl-XL” value against GST-Bcl-XL [4] is recorded as “below the detectable threshold”.
Consider `COc1ccc(Cc2ccc(C(=O)NS(=O)(=O)c3ccc(CN(CCSc4ccccc4)Cc4ccc5c(c4)OCO5)cc3)cc2)c(OC)c1OC` [SZ31TA24, O=C(NS(C1=CC=C(CN(CC2=CC(OCO3)=C3C=C2)CCSC4=CC=CC=C4)C=C1)(=O)=O)C5=CC=C(CC6=C(OC)C(OC)=C(OC)C=C6)C=C5], for which the “Amplification coefficient 5TA x 38SZ” value on Mcl-1 [1] is reported as 7. Further, the half-maximal inhibitory concentration (IC50) in test [2] (setting [6]) worked out at 20 µM. In test [2] (FP), this molecule displayed an inhibition at 50 µM of 82.4%. For the same molecule, the “Amplification coefficient 1TA x 1SZ” value at Mcl-1 [3] is given as 15. At GST-Bcl-XL [4], the “IC50 on Bcl-XL” value is reported as “below the detectable threshold”.
With `Cc1noc(C)c1-c1ccc(S(=O)(=O)NC(=O)c2ccc(CN3C(=O)C(c4ccc(F)cc4F)=C(c4ccc(F)cc4F)C3=O)cc2)cc1` [SZ32TA42, O=C(NS(C1=CC=C(C2=C(C)ON=C2C)C=C1)(=O)=O)C3=CC=C(CN4C(C(C5=C(F)C=C(F)C=C5)=C(C6=CC=C(F)C=C6F)C4=O)=O)C=C3], the “Amplification coefficient 5TA x 38SZ” value at Mcl-1 [1] is on record as 10. The figures for the IC50 (in test [2] (setting [6]); on GST-Bcl-XL [4]) were 19.1 µM and 43.8 µM, respectively. At 50 µM the inhibition in test [2] (FP) was 91%. Also, the “Amplification coefficient 1TA x 1SZ” value at Mcl-1 [3] is recorded as 6.
